The values below come from patent US8846566B2, “Composition for controlling plant diseases and method for controlling plant diseases” (Sumitomo Chemical Company, Limited, priority 2008, dated 2014).

Holding throughout (assay type): in vivo
The test system of experiment [1] is Rhizoctonia solani, pathogen of brown patch of turf. Description: Test Example 5: foliage application on turf, brown patch control (with metconazole). The conditions noted are these: 10 days after inoculation. On the procedure:
Control value=100(A−B)/A “Equation 1”; Generally, the control value expected for the case where the given two kinds of active ingredient compounds are mixed and used for the treatment, the so-called control value expectation is calculated from the following Colby's calculating equation. E=X+Y−(X×Y)/100 “Equation 2”; E: Control value (%) expected for the case in which active ingredient compound A in M ppm, in M g per 100 kg of seeds or in M g per 1 hectare and active ingredient compound B in N ppm, in N g per 100 kg of seeds or in N g per 1 hectare are mixed and used for treatment (hereinbelow referred to as “control value expectation”) “Synergetic effect(%)”=(Actual control value)×100/(Control value expectation) A plastic pot was filled with sandy soil, and turf (Bent grass Penncross) was then disseminated. The turf was allowed to grow in a green house for 20 days. A wettable powder of the compound (1b) and a commercially available metconazole formulation (Caramba (registered trademark) produced by BASF) were respectively diluted with water and then tank-mixed so as to prepare tank-mixed liquids containing the compound (1b) and the metconazole in predetermined concentration. The tank-mixed liquids were subjected to foliage application such that they could be sufficiently adhered to the leaves of the aforementioned turf plants. After completion of the foliage application, the plants were air-dried. Thereafter, bran medium containing mycelium of Rhizoctonia solani, pathogen of brown patch of turf, was sprinkled over the planted area. […] The diameter of infected area on the planted area on which the agents had been sprayed was determined as the incidence of disease at the time of checking and the control value was calculated by the aforementioned Equation 1 based on the incidence of disease determined. […] Besides, in order to calculate the control value, the incidence of disease was also determined in the case in which the plants had not been treated with the agent.

Experiment [2] has as its system Botrytis cinerea, pathogen of gray mold of cucumber. Description: Test Example 1: foliage application on cucumber, gray mold control (with metconazole). The conditions noted are these: 6 days after inoculation. The source says: A plastic pot was filled with sandy soil, and cucumber (Sagamihanjiro) was then disseminated. The cucumber was allowed to grow in a green house for 12 days. A wettable powder of the compound (1b) and a commercially available metconazole formulation (Caramba (registered trademark) produced by BASF) were respectively diluted with water and then tank-mixed so as to prepare tank-mixed liquids containing compound (1b) and metconazole in predetermined concentration. The tank-mixed liquids were subjected to foliage application such that they could be sufficiently adhered to the leaves of the aforementioned cucumber plants. After completion of the foliage application, the plants were air-dried. […] The diameter of infected area on the plants on which the agents had been sprayed was determined as the incidence of disease at the time of checking and the control value was calculated by Equation 1 based on the incidence of disease thus determined.
As a comparison, the respective wettable powders described above were diluted with water in predetermined concentration so as to prepare a compound (1b) liquid and a metconazole liquid respectively and they were subjected to similar disease control test. Besides, in order to calculate the control value, the incidence of disease was also determined in the case in which the plants had not been treated with the agent. […]

The test system is the same in experiment [3]. The experiment is described as follows: Test Example 3: foliage application on cucumber, gray mold control (with ipconazole). As to conditions: 6 days after inoculation. On the procedure: Control value=100(A−B)/A “Equation 1”;
Generally, the control value expected for the case where the given two kinds of active ingredient compounds are mixed and used for the treatment, the so-called control value expectation is calculated from the following Colby's calculating equation. E=X+Y−(X×Y)/100 “Equation 2”; […]
A plastic pot was filled with sandy soil, and cucumber (Sagamihanjiro) was then disseminated. […] The diameter of infected area on the plants on which the agents had been sprayed was determined as the incidence of disease at the time of checking and the control value was calculated by the aforementioned Equation 1 based on the incidence of disease thus determined.
As a comparison, the respective wettable powders described above were diluted with water in predetermined concentration so as to prepare a compound (1b) liquid and an ipconazole liquid respectively and they were subjected to similar disease control test. Besides, in order to calculate the control value, the incidence of disease was also determined in the case in which the plants has not been treated with the agent.

Experiment [4] concerns Rhizoctonia solani, pathogen of cucumber damping-off. The experiment is described as follows: Test Example 4: smear treatment of cucumber seeds, damping-off control (with ipconazole). As to conditions: ipconazole alone 1 g/100 kg-seed, seventh day. On the procedure:
Control value=100(A−B)/A “Equation 1”; Generally, the control value expected for the case where the given two kinds of active ingredient compounds are mixed and used for the treatment, the so-called control value expectation is calculated from the following Colby's calculating equation. E=X+Y−(X×Y)/100 “Equation 2”; E: Control value (%) expected for the case in which active ingredient compound A in M ppm, in M g per 100 kg of seeds or in M g per 1 hectare and active ingredient compound B in N ppm, in N g per 100 kg of seeds or in N g per 1 hectare are mixed and used for treatment (hereinbelow referred to as “control value expectation”) “Synergetic effect(%)”=(Actual control value)×100/(Control value expectation) The results are shown in Table 3. […] They were allowed to grow in a greenhouse while irrigated and the number of non-budding seeds was checked on the seventh day after the dissemination and the incidence of disease was calculated by the aforementioned Equation 3. The control value was calculated by the aforementioned Equation 1 based on the incidence of disease. In order to calculate the control value, the incidence of disease was also determined in the case in which the plants had not been treated with the agent. […]

For experiment [5] the test system is unchanged. Description: Test Example 2: smear treatment of cucumber seeds, damping-off control (with metconazole). The conditions noted are these: metconazole alone 1 g/100 kg-seed, seventh day. On the procedure:
Control value=100(A−B)/A “Equation 1”; Generally, the control value expected for the case where the given two kinds of active ingredient compounds are mixed and used for the treatment, the so-called control value expectation is calculated from the following Colby's calculating equation. E=X+Y−(X×Y)/100 “Equation 2”; E: Control value (%) expected for the case in which active ingredient compound A in M ppm, in M g per 100 kg of seeds or in M g per 1 hectare and active ingredient compound B in N ppm, in N g per 100 kg of seeds or in N g per 1 hectare are mixed and used for treatment (hereinbelow referred to as “control value expectation”) “Synergetic effect(%)”=(Actual control value)×100/(Control value expectation) Mixed liquids containing an acetone solution of compound (1b) and an acetone solution of metconazole were prepared. These mixed liquids were used for smear treatment of cucumber (Sagamihanjiro) seeds using a rotary seed treatment machine (seed dresser, produced by Hans-Ulrich Hege GmbH) so as to obtain treated seeds. […] They were allowed to grow in a greenhouse while irrigated and the number of non-budding seeds was checked on the seventh day after the dissemination and the incidence of disease was calculated by Equation 3. The control value was calculated by the aforementioned Equation 1 based on the incidence of disease. […]

For `CNC(=O)C(OC)c1ccccc1COc1cc(C)ccc1C` (racemic) [Compound (1b)], the Actual control value was found to be 88% in experiment [1] (compound (1b) alone 600 g/ha), 16% in experiment [2] (compound (1b) alone 0.2 ppm) and 8% in experiment [3] (compound (1b) alone 0.2 ppm).

In the case of `CC(C)C1CCC(Cc2ccc(Cl)cc2)C1(O)Cn1cncn1` (stereo not drawn) [Ipconazole, ipconazole], the Actual control value in experiment [4] amounted to 30%; in experiment [3] (ipconazole alone 3.1 ppm), 13%.

`CC1(C)CCC(Cc2ccc(Cl)cc2)C1(O)Cn1cncn1` (stereo not drawn) [Metconazole, metconazole]: the Actual control value is 63% in experiment [1] (metconazole alone 9.4 g/ha), 63% in experiment [1] (metconazole alone 37.5 g/ha), 39% in experiment [5] and 8% in experiment [2] (metconazole alone 0.8 ppm).
